Values quoted from earlier work, collected in patent US20240294879A1, “STEM CELL DIFFERENTIATION AND POLYMERS” (VERTEX PHARMACEUTICALS INCORPORATED, priority 2021, published 2024).

Target: EZH2 (Homo sapiens, UniProt Q15910)
Sequence (Q15910 whole entry, species assumed): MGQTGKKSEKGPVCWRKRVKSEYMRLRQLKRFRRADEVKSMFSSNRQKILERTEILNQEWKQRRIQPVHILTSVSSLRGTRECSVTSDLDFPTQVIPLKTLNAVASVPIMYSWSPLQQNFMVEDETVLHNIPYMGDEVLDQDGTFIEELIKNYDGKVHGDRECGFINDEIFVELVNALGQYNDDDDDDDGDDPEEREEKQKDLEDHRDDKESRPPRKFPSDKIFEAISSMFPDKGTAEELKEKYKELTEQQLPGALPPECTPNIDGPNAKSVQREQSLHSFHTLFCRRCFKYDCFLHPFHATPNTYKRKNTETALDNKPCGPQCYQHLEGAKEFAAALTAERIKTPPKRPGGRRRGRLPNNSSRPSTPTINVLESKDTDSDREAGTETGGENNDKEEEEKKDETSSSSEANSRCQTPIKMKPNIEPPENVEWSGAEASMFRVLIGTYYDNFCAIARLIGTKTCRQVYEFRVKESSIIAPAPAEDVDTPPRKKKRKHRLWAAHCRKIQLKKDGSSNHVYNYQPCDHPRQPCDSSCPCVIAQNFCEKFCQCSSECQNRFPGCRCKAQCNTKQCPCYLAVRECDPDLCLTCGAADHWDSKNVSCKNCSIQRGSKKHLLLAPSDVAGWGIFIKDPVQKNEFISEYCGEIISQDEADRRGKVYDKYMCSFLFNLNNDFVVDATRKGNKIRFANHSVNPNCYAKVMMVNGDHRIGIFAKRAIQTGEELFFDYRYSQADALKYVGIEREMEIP
Sequence (O75530 whole entry partner, species assumed): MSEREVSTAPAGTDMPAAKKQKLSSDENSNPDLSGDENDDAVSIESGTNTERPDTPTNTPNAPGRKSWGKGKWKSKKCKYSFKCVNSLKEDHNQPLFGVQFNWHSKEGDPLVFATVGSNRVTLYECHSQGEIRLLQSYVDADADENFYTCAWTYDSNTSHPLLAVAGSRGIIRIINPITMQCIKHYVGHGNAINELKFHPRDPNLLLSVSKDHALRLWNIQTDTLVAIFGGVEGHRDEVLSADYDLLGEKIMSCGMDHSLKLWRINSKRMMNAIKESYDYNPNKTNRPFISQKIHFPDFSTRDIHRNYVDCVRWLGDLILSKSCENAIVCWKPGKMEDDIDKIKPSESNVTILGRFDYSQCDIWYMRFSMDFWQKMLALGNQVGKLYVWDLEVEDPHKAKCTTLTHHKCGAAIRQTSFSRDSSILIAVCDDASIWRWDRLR
Sequence (Q15022 whole entry partner, species assumed): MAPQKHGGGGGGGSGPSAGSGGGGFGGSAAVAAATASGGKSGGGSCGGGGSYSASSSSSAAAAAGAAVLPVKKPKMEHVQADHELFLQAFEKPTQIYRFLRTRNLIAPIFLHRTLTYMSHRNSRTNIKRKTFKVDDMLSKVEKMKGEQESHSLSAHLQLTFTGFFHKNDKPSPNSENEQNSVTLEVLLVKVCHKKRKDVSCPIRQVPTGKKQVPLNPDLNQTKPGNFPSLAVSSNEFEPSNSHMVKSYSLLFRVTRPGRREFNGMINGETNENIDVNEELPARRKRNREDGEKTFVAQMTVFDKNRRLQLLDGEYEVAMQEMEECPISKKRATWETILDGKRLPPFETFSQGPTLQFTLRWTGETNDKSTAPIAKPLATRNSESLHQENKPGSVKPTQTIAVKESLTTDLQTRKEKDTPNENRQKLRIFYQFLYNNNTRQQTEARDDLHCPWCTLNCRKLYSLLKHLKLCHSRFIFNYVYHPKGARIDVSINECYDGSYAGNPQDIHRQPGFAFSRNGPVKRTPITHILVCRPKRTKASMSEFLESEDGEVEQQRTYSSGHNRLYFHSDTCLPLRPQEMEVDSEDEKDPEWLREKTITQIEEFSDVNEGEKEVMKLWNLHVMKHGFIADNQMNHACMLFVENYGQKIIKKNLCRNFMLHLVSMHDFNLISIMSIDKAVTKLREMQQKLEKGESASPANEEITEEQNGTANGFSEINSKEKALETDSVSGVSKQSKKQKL

selectivity over EZH1 (EZH2 versus EZH1) | selectivity relative to GSK126 (EZH2 inhibitor) | SMILES
150 fold | – | CC[C@H](C)n1cc(C)c2c(C(=O)NCc3c(C)cc(C)[nH]c3=O)cc(-c3ccc(N4CCNCC4)nc3)cc21 [GSK126]
– | less selective | CCCc1cc(C)[nH]c(=O)c1CNC(=O)c1cc(-c2ccc(N3CCN(C(C)C)CC3)nc2)cc2c1cnn2C(C)C [UNC1999]
